Eleven compounds from ChEMBL document CHEMBL1201862, “PubChem BioAssay data set” (2004) can be followed below.

Test systems include HCT-15; K562; KM12; SK-MEL-2; HCT-116; A498; SN12C; SNB-75; A549; SNB-19; SW-620; SF-268; HL-60; SK-MEL-5; ACHN; MCF7; NCI-H460; HT-29; SK-MEL-28; HOP-92.
Common to all, as to test: NCI-60 cell line screen, 48 h

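Method: 48-hour compound exposure of cells in 96-well plates, five concentrations, linear interpolation of endpoints. Abbreviation: GI50, concentration required for 50% inhibition of growth.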 Activity calls are given as the source filed them. Cut-off read from the data, not from the text of the source: active = GI50 up to about 1.1 µM and inactive = higher.

With `Cc1ccc(S(=O)(=O)N(c2ccccc2F)C2CCCCC2O)cc1` (configuration not stated), the GI50 is 55 µM with HCT-15; 42.2 µM (inactive) in the assay with K562; 33.1 µM (inactive) with KM12; 29.4 µM (inactive) with SK-MEL-2; 18 µM (inactive) in the assay with HCT-116; 38.1 µM (inactive) in the assay on A498. In addition, the GI50 in the assay with SN12C was 56.9 µM (inactive); in the assay on SNB-75, 20 µM (inactive); in the assay with A549 it was 35.2 µM (inactive); in the assay on SNB-19 it was > 100 µM (inactive); in the assay with SW-620, 64.4 µM (inactive); with SF-268, 38 µM (inactive). For the same compound, the GI50 in the assay on HL-60 is 23.3 µM (inactive); in the assay with SK-MEL-5 it was 20.7 µM (inactive); in the assay on ACHN, 57.7 µM (inactive); in the assay with MCF7 it was 21.7 µM (inactive); in the assay on NCI-H460, 45.9 µM (inactive); with HT-29, 43 µM (inactive). In addition, the GI50 in the assay on SK-MEL-28 is > 100 µM (inactive).

On to `COc1cc([C@@H]2c3cc4c(cc3[C@@H](Nc3ccc(Cl)cc3C(=O)c3ccccc3Cl)[C@H]3COC(=O)[C@H]23)OCO4)cc(OC)c1OC`, for which the GI50 in the assay with HCT-15 is 0.102 µM; with K562, 0.106 µM (active); in the assay with KM12, 0.091 µM (active); with SK-MEL-2 it was 0.953 µM (active); in the assay on HCT-116 it was 0.0738 µM (active); in the assay on A498, 0.0989 µM (active). The GI50 in the assay on SN12C is 0.371 µM (active); with SNB-75, 0.188 µM (active); with A549, 0.34 µM (active); in the assay on SNB-19, 0.174 µM (active); with SW-620, 0.122 µM (active); in the assay on SF-268, 0.189 µM (active). The GI50 in the assay on HL-60 was 0.0695 µM (active); in the assay with SK-MEL-5, 0.102 µM (active); with ACHN, 0.125 µM (active); in the assay with MCF7 it was 0.111 µM (active); in the assay with NCI-H460, 0.146 µM (active); with HT-29, 0.09 µM (active). The GI50 with SK-MEL-28 is 0.333 µM (active).

With `CC1(C)C2CCC1(C)[C@H](O)[C@H]2Nc1cc(C(F)(F)F)cc(C(F)(F)F)c1` (some centres not stated), the GI50 is 3.49 µM in the assay with HCT-15; 2.79 µM (inactive) in the assay with K562; 2.88 µM (inactive) in the assay on KM12; 2.35 µM (inactive) in the assay with SK-MEL-2; 2.72 µM (inactive) in the assay with HCT-116; > 100 µM (inactive) in the assay with A498. Further, the GI50 was 0.0252 µM (active) with SNB-75; 3.7 µM (inactive) in the assay on A549; 4.48 µM (inactive) with SNB-19; 3.36 µM (inactive) in the assay with SW-620; 3.14 µM (inactive) in the assay on SF-268; 5.38 µM (inactive) in the assay with SK-MEL-5. The GI50 in the assay with ACHN is > 100 µM (inactive); in the assay on MCF7 it was > 100 µM (inactive); in the assay on NCI-H460, 3.71 µM (inactive); in the assay on HT-29, 3.32 µM (inactive); in the assay with SK-MEL-28 it was 1.74 µM (inactive).

Regarding `CC1=CCC2CC1C(C(=O)c1c[nH]c3ccccc13)=NC2(C)C` (configuration not stated), the GI50 is 45.2 µM in the assay on HCT-15; 34 µM (inactive) with K562; 52.4 µM (inactive) in the assay with KM12; 50.4 µM (inactive) in the assay on HCT-116; > 100 µM (inactive) with A498; 87.9 µM (inactive) with SN12C. Moreover, the GI50 in the assay on A549 is 61 µM (inactive); in the assay with SNB-19, > 100 µM (inactive); in the assay on SW-620 it was 76 µM (inactive); in the assay with SF-268, > 100 µM (inactive); in the assay on HL-60, 20.8 µM (inactive); in the assay on SK-MEL-5, 37.6 µM (inactive). The GI50 in the assay with ACHN is 73.6 µM (inactive); with MCF7 it was 54.6 µM (inactive); in the assay on NCI-H460 it was 52.4 µM (inactive); in the assay with HT-29, 51.1 µM (inactive); in the assay with SK-MEL-28, > 100 µM (inactive).

As for `CC(Cc1ccc2c(c1)OCO2)N(C)C(=O)C1=CCN(C)CC1` (configuration not stated), the GI50 with HCT-15 was greater than 100 µM; in the assay with K562, > 100 µM (inactive); with KM12, > 100 µM (inactive); in the assay on SK-MEL-2, > 100 µM (inactive); in the assay on HCT-116, > 100 µM (inactive); in the assay on SN12C it was > 100 µM (inactive). Further, the GI50 is 46.2 µM (inactive) in the assay on SNB-75; > 100 µM (inactive) in the assay on A549; > 100 µM (inactive) in the assay with SNB-19; > 100 µM (inactive) in the assay on SW-620; > 100 µM (inactive) in the assay on SF-268; > 100 µM (inactive) in the assay on HL-60. The GI50 in the assay with SK-MEL-5, in the assay with ACHN, with MCF7, with NCI-H460, with HT-29 and with SK-MEL-28 was > 100 µM (inactive) throughout.

Consider `COc1ccc2c(c1)c(=O)c1ccccc1n2/C=C/C(=O)O`, for which the GI50 in the assay with HCT-15 is greater than 100 µM; in the assay on K562 it was > 100 µM (inactive); with KM12, > 100 µM (inactive); in the assay with SK-MEL-2 it was > 100 µM (inactive); with HCT-116, > 100 µM (inactive); in the assay with A498, > 100 µM (inactive). For the same compound, the GI50 is > 100 µM (inactive) in the assay on SN12C; > 100 µM (inactive) in the assay with SNB-75; > 100 µM (inactive) in the assay with A549; > 100 µM (inactive) in the assay with SNB-19; > 100 µM (inactive) in the assay on SW-620; > 68.2 µM (inactive) with SF-268. Moreover, the GI50 in the assay on HL-60 is > 46.8 µM (inactive); in the assay with SK-MEL-5 it was > 100 µM (inactive); with HOP-92 it was > 100 µM (inactive); in the assay with ACHN, > 100 µM (inactive); in the assay with NCI-H460, > 100 µM (inactive); with HT-29 it was > 74.8 µM (inactive). Besides, the GI50 with SK-MEL-28 is > 100 µM (inactive).

With `NC(=O)c1oc([N+](=O)[O-])c(-c2ccccc2)c1-c1ccccc1`, the GI50 was 15.5 µM with HCT-15; 14.6 µM (inactive) with K562; 13.6 µM (inactive) with KM12; 15.6 µM (inactive) in the assay with SK-MEL-2; 15.4 µM (inactive) in the assay on HCT-116; 0.0367 µM (active) with SN12C. The GI50 with SNB-75 was 65.9 µM (inactive); in the assay with A549, 21.1 µM (inactive); in the assay with SNB-19, 38.5 µM (inactive); in the assay with SW-620, 27 µM (inactive); with SF-268, 37.6 µM (inactive); in the assay on HL-60, 25.1 µM (inactive). The GI50 in the assay on SK-MEL-5 was 0.597 µM (active); in the assay on HOP-92 it was 16.1 µM (inactive); in the assay with ACHN it was 26.2 µM (inactive); in the assay on MCF7, 29.5 µM (inactive); in the assay on NCI-H460, 26.2 µM (inactive); in the assay on HT-29, 27.2 µM (inactive). Further, the GI50 in the assay with SK-MEL-28 is 44 µM (inactive).

In the case of `CC(=O)N(C)SCC(NC(=O)C(Cc1ccccc1)NC(=O)OCc1ccccc1)C(=O)NC(Cc1ccccc1)C(=O)NC(Cc1cn(C=O)c2ccccc12)C(=O)NC(CCCCNC(=O)OCc1ccccc1)C(=O)NC(C(=O)NC(CSN(C)C(C)=O)C(=O)NO)C(C)OCc1ccccc1` (configuration not stated), the GI50 was greater than 100 µM in the assay on HCT-15; > 100 µM (inactive) in the assay on K562; > 100 µM (inactive) in the assay on KM12; > 100 µM (inactive) in the assay with SK-MEL-2; > 100 µM (inactive) in the assay with HCT-116; > 100 µM (inactive) in the assay on SN12C. The GI50 in the assay on SNB-75, in the assay on A549, in the assay with SNB-19, with SW-620, with SF-268 and in the assay on HL-60 was > 100 µM (inactive) in each case. Further, the GI50 in the assay with SK-MEL-5, with HOP-92, in the assay on ACHN, with MCF7, in the assay with NCI-H460 and in the assay with HT-29 was > 100 µM (inactive) each time. Also, the GI50 in the assay on SK-MEL-28 was > 100 µM (inactive).

Regarding `Cc1nc2ccccc2cc1C[N+]12CN3CN(CN(C3)C1)C2`, the GI50 in the assay on HCT-15 is 15.2 µM; in the assay on K562, 29.2 µM (inactive); with KM12, 20.9 µM (inactive); in the assay with SK-MEL-2, 18.6 µM (inactive); in the assay on HCT-116, 5.21 µM (inactive); with A498, 22.8 µM (inactive). For the same compound, the GI50 is 18 µM (inactive) with SN12C; 17.9 µM (inactive) with SNB-75; 30.8 µM (inactive) with A549; 23.8 µM (inactive) in the assay with SNB-19; 5.35 µM (inactive) in the assay on SW-620; 22.7 µM (inactive) in the assay on SF-268. The GI50 in the assay on SK-MEL-5 was 18.4 µM (inactive); with HOP-92, 45.2 µM (inactive); in the assay on ACHN, 17.1 µM (inactive); in the assay on MCF7, 4.29 µM (inactive); with NCI-H460 it was 18.2 µM (inactive); in the assay on HT-29, 15.7 µM (inactive). In the assay with SK-MEL-28, the GI50 is 18.7 µM (inactive).

On to `O=C1NC(=O)C(CC2CCCCCCCCCCC2=O)C(=O)N1` (configuration not stated), for which the GI50 with HCT-15 was greater than 100 µM; in the assay with KM12, > 100 µM (inactive); in the assay on SK-MEL-2, > 100 µM (inactive); in the assay on HCT-116, > 100 µM (inactive); in the assay with SN12C, > 100 µM (inactive); with SNB-75, > 100 µM (inactive). Further, the GI50 in the assay on A549 is > 100 µM (inactive); with SNB-19, > 100 µM (inactive); with SW-620 it was > 100 µM (inactive); in the assay on SF-268, > 100 µM (inactive); in the assay on HL-60, 4.94 µM (inactive); with SK-MEL-5, > 100 µM (inactive). For the same compound, the GI50 with HOP-92 was > 100 µM (inactive); with ACHN it was > 100 µM (inactive); with MCF7, > 100 µM (inactive); with NCI-H460, > 100 µM (inactive); in the assay with HT-29 it was 74 µM (inactive); in the assay with SK-MEL-28, > 100 µM (inactive).

As to `COc1ccc(-c2oc3cc(-c4cc5oc(-c6ccc(OC)cc6)c(-c6ccc(OC)cc6)c5cc4OC)c(OC)cc3c2-c2ccc(OC)cc2)cc1`, the GI50 in the assay on HCT-15 was greater than 100 µM; in the assay with K562, > 100 µM (inactive); in the assay with KM12 it was > 100 µM (inactive); in the assay with HCT-116 it was > 100 µM (inactive); with A498 it was > 100 µM (inactive); in the assay on SN12C, > 100 µM (inactive). In addition, the GI50 with SNB-75, in the assay with A549, with SNB-19, with SW-620, in the assay with SF-268 and in the assay with SK-MEL-5 was > 100 µM (inactive) each time. The GI50 in the assay with HOP-92, in the assay on ACHN, in the assay on MCF7, in the assay on NCI-H460, with HT-29 and in the assay on SK-MEL-28 was > 100 µM (inactive) in each case.
